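Cells were grown in 96-well plates and exposed to each compound for 48 hours at five concentrations; endpoints were interpolated linearly between bracketing concentrations, or set to the highest concentration if not reached. Here, GI50 denotes the concentration required for 50% inhibition of growth. TGI is the concentration that stops growth completely.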
Key:
Assay in all cases: DTP human tumour cell line panel, 48 h
[1] = test system: NCI-H226 lung
[2] = test system: HOP-62 NSCLC
[3] = test system: UO-31 renal
[4] = test system: NCI-H522 lung
[5] = test system: T-47D breast
[6] = test system: IGROV1 ovarian
[7] = test system: A549 NSCLC
[8] = test system: ACHN renal
[9] = test system: MDA-MB-435
[10] = test system: HOP-92 NSCLC

## COc1ccc(-c2c(-c3ccc(C#N)c(F)c3)nc(N3CCC(N)CC3)n(C)c2=O)cc1F
[1]
  GI50: 50 µM
  TGI: > 100 µM
[2]
  GI50: 17.1 µM
  TGI: > 100 µM
[3]
  GI50: 9.31 µM
  TGI: 22.9 µM
[4]
  GI50: 13.6 µM
  TGI: 30.7 µM
[5]
  GI50: 14 µM
  TGI: 46.3 µM
[6]
  GI50: 16.3 µM
  TGI: 41.8 µM
[7]
  GI50: 29.8 µM
  TGI: > 100 µM
[8]
  GI50: 15.8 µM
  TGI: 41.5 µM
[9]
  GI50: 14.4 µM
  TGI: 28.9 µM

## Cc1ccc(S(=O)(=O)NNS(C)(=O)=O)cc1
[2]
  TGI: > 100 µM
[3]
  TGI: > 100 µM
[4]
  TGI: > 100 µM
[6]
  TGI: > 100 µM
[7]
  TGI: > 100 µM
[8]
  TGI: > 100 µM

## O=C1C=CC(=O)c2c1nc(CBr)[nH]c2=O
[2]
  TGI: > 100 µM
[3]
  TGI: > 100 µM
[4]
  TGI: > 100 µM
[5]
  TGI: > 100 µM
[6]
  TGI: > 100 µM
[7]
  TGI: > 100 µM
[8]
  TGI: > 100 µM
[9]
  TGI: 87.4 µM

## Cc1ccc(Nc2nc(-c3ccc(-c4ccc([N+](=O)[O-])cc4)o3)cs2)cc1
[1]
  TGI: > 100 µM
[2]
  TGI: > 100 µM
[3]
  TGI: > 100 µM
[10]
  TGI: > 100 µM
[6]
  TGI: > 100 µM
[7]
  TGI: > 100 µM
[8]
  TGI: > 100 µM

## CC(=O)Nc1ccc(/C=c2\sc3nnc(-c4cccnc4)n3c2=O)cc1
[1]
  TGI: > 100 µM
[2]
  TGI: 52.6 µM
[3]
  TGI: 24.7 µM
[4]
  TGI: 33.2 µM
[10]
  TGI: 44.2 µM
[6]
  TGI: 32.5 µM
[7]
  TGI: > 100 µM
[8]
  TGI: 26.9 µM

## CC1=C2C=CC(=O)C[C@@]2(C)CCC1
[2]
  TGI: > 100 µM
[3]
  TGI: > 100 µM
[4]
  TGI: > 100 µM
[10]
  TGI: > 100 µM
[6]
  TGI: > 100 µM
[7]
  TGI: > 100 µM
[8]
  TGI: > 100 µM

## COc1ccc(/C=C/c2ccnc3ccccc23)cc1OC
[1]
  TGI: 48.5 µM
[2]
  TGI: 28.5 µM
[3]
  TGI: 0.478 µM
[4]
  TGI: 23.2 µM
[5]
  TGI: 74.5 µM
[6]
  TGI: 28.9 µM
[7]
  TGI: 31.2 µM
[8]
  TGI: > 100 µM
[9]
  TGI: 28.6 µM

## O=C1[C@@H]2C(c3ccccc3[N+](=O)[O-])=NO[C@@H]2C(=O)N1c1ccc(Cc2ccc(N3C(=O)[C@H]4C(c5ccccc5[N+](=O)[O-])=NO[C@H]4C3=O)cc2)cc1
[2]
  TGI: > 100 µM
[3]
  TGI: > 100 µM
[4]
  TGI: > 100 µM
[10]
  TGI: > 100 µM
[6]
  TGI: > 100 µM
[8]
  TGI: > 100 µM

## Cc1[nH]c2cc([N+](=O)[O-])ccc2c1[N+](=O)[O-]
[1]
  TGI: 71.8 µM
[2]
  TGI: 32.8 µM
[3]
  TGI: 36.2 µM
[4]
  TGI: 38.4 µM
[10]
  TGI: 23.8 µM
[6]
  TGI: > 100 µM
[7]
  TGI: 69.6 µM
[8]
  TGI: 50.3 µM

## O=C(N/C(=C\c1ccc(/C=C(\NC(=O)c2ccccc2)c2nc3c(O)nc(S)nc3[nH]2)cc1)c1nc2c(O)nc(S)nc2[nH]1)c1ccccc1
[2]
  TGI: > 100 µM
[3]
  TGI: > 100 µM
[4]
  TGI: 41.1 µM
[10]
  TGI: > 100 µM
[6]
  TGI: > 100 µM
[7]
  TGI: > 100 µM
[8]
  TGI: > 100 µM

## S=C(SSC(=S)N1CCCCC1)N1CCCCC1
[1]
  GI50: 34.6 µM
  TGI: > 100 µM
[2]
  GI50: 28.4 µM
  TGI: > 100 µM
[3]
  GI50: 19.2 µM
  TGI: > 100 µM
[4]
  GI50: 12.2 µM
  TGI: 30.1 µM
[10]
  GI50: 30.7 µM
  TGI: > 100 µM
[7]
  GI50: 24.1 µM
  TGI: > 100 µM
[8]
  GI50: 15.5 µM
  TGI: 41 µM
[9]
  GI50: 22 µM
  TGI: > 100 µM

From PubChem BioAssay (NCI)
